Experiment: Plasma pharmacokinetics of BI 187004 after single oral doses (LC–MS/MS)
Settings: male, human, plasma, po
[1] = 10 mg, Plasma concentration Mean, 10 mg single oral
[2] = 10 mg, Plasma concentration Median, 10 mg single oral
[3] = 10 mg, Plasma concentration gMean, 10 mg single oral

Experimental: This was a randomized, double-blind, placebo-controlled, single rising dose study conducted at a single center in Germany. […] Follow-up on an ambulatory basis was performed between 11 and 15 days after study drug administration. […] At the time of use the oral solution for dosing was prepared using the PFOS and a co-supplied aqueous solvent containing HP-beta-cyclodextrin 100 mg/mL. The lowest dose level solutions were prepared by further dilution of the lower concentration solution with additional solvent.
For each accepted run, the acceptance criteria for the calibration standards and quality controls were met.

Compound: N#Cc1ccc2c(c1)[C@H]1CCCN(C(=O)c3ccc4[nH]cnc4c3)[C@H]1C2 [BI 187004]
- concentration at 24 h [1]: 76.9 nM
- concentration at 36 h [1]: 30.2 nM
- concentration at 48 h [1]: 22.8 nM
- concentration at 72 h [1]: 10.7 nM
- concentration at 96 h [1]: 5.72 nM
- concentration at 0.5 h (10 mg, Plasma concentration Median, 10 mg single oral, 0.5 h): 363 nM
- concentration at 1 h (10 mg, Plasma concentration Median, 10 mg single oral, 1 h): 413 nM
- concentration at 1.5 h (10 mg, Plasma concentration Median, 10 mg single oral, 1.5 h): 435 nM
- concentration at 2 h (10 mg, Plasma concentration Median, 10 mg single oral, 2 h): 396 nM
- concentration at 2.5 h (10 mg, Plasma concentration Median, 10 mg single oral, 2.5 h): 381 nM
- concentration at 3 h (10 mg, Plasma concentration Median, 10 mg single oral, 3 h): 334 nM
- concentration at 4 h (10 mg, Plasma concentration Median, 10 mg single oral, 4 h): 368 nM
- concentration at 5 h (10 mg, Plasma concentration Median, 10 mg single oral, 5 h): 272 nM
- concentration at 6 h (10 mg, Plasma concentration Median, 10 mg single oral, 6 h): 243 nM
- concentration at 8 h (10 mg, Plasma concentration Median, 10 mg single oral, 8 h): 217 nM
- concentration at 10 h [2]: 179 nM
- concentration at 12 h [2]: 147 nM
- concentration at 24 h [2]: 80 nM
- concentration at 36 h [2]: 29.6 nM
- concentration at 48 h [2]: 22.4 nM
- concentration at 72 h [2]: 9.36 nM
- concentration at 96 h [2]: 5.09 nM
- concentration at 0.5 h (10 mg, Plasma concentration gMean, 10 mg single oral, 0.5 h): 279 nM
- concentration at 1 h (10 mg, Plasma concentration gMean, 10 mg single oral, 1 h): 426 nM
- concentration at 1.5 h (10 mg, Plasma concentration gMean, 10 mg single oral, 1.5 h): 435 nM
- concentration at 2 h (10 mg, Plasma concentration gMean, 10 mg single oral, 2 h): 380 nM
- concentration at 2.5 h (10 mg, Plasma concentration gMean, 10 mg single oral, 2.5 h): 372 nM
- concentration at 3 h (10 mg, Plasma concentration gMean, 10 mg single oral, 3 h): 336 nM
- concentration at 4 h (10 mg, Plasma concentration gMean, 10 mg single oral, 4 h): 340 nM
- concentration at 5 h (10 mg, Plasma concentration gMean, 10 mg single oral, 5 h): 270 nM
- concentration at 6 h (10 mg, Plasma concentration gMean, 10 mg single oral, 6 h): 254 nM
- concentration at 8 h (10 mg, Plasma concentration gMean, 10 mg single oral, 8 h): 208 nM
- concentration at 10 h [3]: 174 nM
- concentration at 12 h [3]: 140 nM
- concentration at 24 h [3]: 71.3 nM
- concentration at 36 h [3]: 26.3 nM
- concentration at 48 h [3]: 20.5 nM
- concentration at 72 h [3]: 10.2 nM
- concentration at 96 h [3]: 5.48 nM
- concentration at 1 h (10 mg, Plasma concentration, individual subjects, 10 mg single oral, planned time 1 h): 519 nM
- concentration at 1.5 h (10 mg, Plasma concentration, individual subjects, 10 mg single oral, planned time 1.5 h): 537 nM
- concentration at 2 h (10 mg, Plasma concentration, individual subjects, 10 mg single oral, planned time 2 h): 437 nM
- concentration at 2.5 h (10 mg, Plasma concentration, individual subjects, 10 mg single oral, planned time 2.5 h): 442 nM
- concentration at 3 h (10 mg, Plasma concentration, individual subjects, 10 mg single oral, planned time 3 h): 405 nM
- concentration at 4 h (10 mg, Plasma concentration, individual subjects, 10 mg single oral, planned time 4 h): 412 nM
- concentration at 5 h (10 mg, Plasma concentration, individual subjects, 10 mg single oral, planned time 5 h): 352 nM
- concentration at 6 h (10 mg, Plasma concentration, individual subjects, 10 mg single oral, planned time 6 h): 353 nM
- concentration at 8 h (10 mg, Plasma concentration, individual subjects, 10 mg single oral, planned time 8 h): 241 nM
- AUC(0-inf) (20 mg): 12.4 µM·h
- AUC(0-t) (20 mg): 9.45 µM·h
- Cmax (20 mg): 1030 nM
- Tmax (20 mg): 1.38 h
- Vd/F (20 mg): 144 L
- half-life (20 mg): 21.2 h
- concentration at 0.5 h (20 mg, BI 187004 plasma concentrations, 20 mg single oral, planned time 0.5 h, Max): 1050 nM
- concentration at 0.5 h (20 mg, BI 187004 plasma concentrations, 20 mg single oral, planned time 0.5 h, Mean): 431 nM
- concentration at 0.5 h (20 mg, BI 187004 plasma concentrations, 20 mg single oral, planned time 0.5 h, Median): 215 nM
- concentration at 0.5 h (20 mg, BI 187004 plasma concentrations, 20 mg single oral, planned time 0.5 h, Min): 34.3 nM
- concentration at 0.5 h (20 mg, BI 187004 plasma concentrations, 20 mg single oral, planned time 0.5 h, gMean): 211 nM
- concentration at 1 h (20 mg, BI 187004 plasma concentrations, 20 mg single oral, planned time 1 h, Max): 1130 nM
- concentration at 1 h (20 mg, BI 187004 plasma concentrations, 20 mg single oral, planned time 1 h, Mean): 885 nM
- concentration at 1 h (20 mg, BI 187004 plasma concentrations, 20 mg single oral, planned time 1 h, Median): 1030 nM
- concentration at 1 h (20 mg, BI 187004 plasma concentrations, 20 mg single oral, planned time 1 h, Min): 236 nM
- concentration at 1 h (20 mg, BI 187004 plasma concentrations, 20 mg single oral, planned time 1 h, gMean): 788 nM
- concentration at 1.5 h (20 mg, BI 187004 plasma concentrations, 20 mg single oral, planned time 1.5 h, Max): 1210 nM
- concentration at 1.5 h (20 mg, BI 187004 plasma concentrations, 20 mg single oral, planned time 1.5 h, Mean): 969 nM
- concentration at 1.5 h (20 mg, BI 187004 plasma concentrations, 20 mg single oral, planned time 1.5 h, Median): 944 nM
- concentration at 1.5 h (20 mg, BI 187004 plasma concentrations, 20 mg single oral, planned time 1.5 h, Min): 824 nM
- concentration at 1.5 h (20 mg, BI 187004 plasma concentrations, 20 mg single oral, planned time 1.5 h, gMean): 960 nM
- concentration at 1.5 h (20 mg, BI 187004 plasma concentrations, 20 mg single oral, planned time 1.5 h, individual subjects): 1210 nM
- concentration at 2 h (20 mg, BI 187004 plasma concentrations, 20 mg single oral, planned time 2 h, Max): 1100 nM
- concentration at 2 h (20 mg, BI 187004 plasma concentrations, 20 mg single oral, planned time 2 h, Mean): 877 nM
- concentration at 2 h (20 mg, BI 187004 plasma concentrations, 20 mg single oral, planned time 2 h, Median): 890 nM
- concentration at 2 h (20 mg, BI 187004 plasma concentrations, 20 mg single oral, planned time 2 h, Min): 630 nM
- concentration at 2 h (20 mg, BI 187004 plasma concentrations, 20 mg single oral, planned time 2 h, gMean): 863 nM
- concentration at 2 h (20 mg, BI 187004 plasma concentrations, 20 mg single oral, planned time 2 h, individual subjects): 1100 nM
- concentration at 2.5 h (20 mg, BI 187004 plasma concentrations, 20 mg single oral, planned time 2.5 h, Max): 1060 nM
- concentration at 2.5 h (20 mg, BI 187004 plasma concentrations, 20 mg single oral, planned time 2.5 h, Mean): 860 nM
- concentration at 2.5 h (20 mg, BI 187004 plasma concentrations, 20 mg single oral, planned time 2.5 h, Median): 866 nM
- concentration at 2.5 h (20 mg, BI 187004 plasma concentrations, 20 mg single oral, planned time 2.5 h, Min): 619 nM
- concentration at 2.5 h (20 mg, BI 187004 plasma concentrations, 20 mg single oral, planned time 2.5 h, gMean): 843 nM
- concentration at 2.5 h (20 mg, BI 187004 plasma concentrations, 20 mg single oral, planned time 2.5 h, individual subjects): 1060 nM
- concentration at 3 h (20 mg, BI 187004 plasma concentrations, 20 mg single oral, planned time 3 h, Max): 945 nM
- concentration at 3 h (20 mg, BI 187004 plasma concentrations, 20 mg single oral, planned time 3 h, Mean): 760 nM
- concentration at 3 h (20 mg, BI 187004 plasma concentrations, 20 mg single oral, planned time 3 h, Median): 770 nM
- concentration at 3 h (20 mg, BI 187004 plasma concentrations, 20 mg single oral, planned time 3 h, Min): 586 nM
- concentration at 3 h (20 mg, BI 187004 plasma concentrations, 20 mg single oral, planned time 3 h, gMean): 746 nM
- concentration at 3 h (20 mg, BI 187004 plasma concentrations, 20 mg single oral, planned time 3 h, individual subjects): 945 nM
- concentration at 4 h (20 mg, BI 187004 plasma concentrations, 20 mg single oral, planned time 4 h, Max): 896 nM
- concentration at 4 h (20 mg, BI 187004 plasma concentrations, 20 mg single oral, planned time 4 h, Mean): 724 nM
- concentration at 4 h (20 mg, BI 187004 plasma concentrations, 20 mg single oral, planned time 4 h, Median): 748 nM
- concentration at 4 h (20 mg, BI 187004 plasma concentrations, 20 mg single oral, planned time 4 h, Min): 531 nM
- concentration at 4 h (20 mg, BI 187004 plasma concentrations, 20 mg single oral, planned time 4 h, gMean): 707 nM
- concentration at 4 h (20 mg, BI 187004 plasma concentrations, 20 mg single oral, planned time 4 h, individual subjects): 896 nM
- concentration at 5 h (20 mg, BI 187004 plasma concentrations, 20 mg single oral, planned time 5 h, Max): 883 nM
- concentration at 5 h (20 mg, BI 187004 plasma concentrations, 20 mg single oral, planned time 5 h, Mean): 653 nM
- concentration at 5 h (20 mg, BI 187004 plasma concentrations, 20 mg single oral, planned time 5 h, Median): 644 nM
- concentration at 5 h (20 mg, BI 187004 plasma concentrations, 20 mg single oral, planned time 5 h, Min): 463 nM
- concentration at 5 h (20 mg, BI 187004 plasma concentrations, 20 mg single oral, planned time 5 h, gMean): 634 nM
- concentration at 5 h (20 mg, BI 187004 plasma concentrations, 20 mg single oral, planned time 5 h, individual subjects): 773 nM
- concentration at 6 h (20 mg, BI 187004 plasma concentrations, 20 mg single oral, planned time 6 h, Max): 847 nM
- concentration at 6 h (20 mg, BI 187004 plasma concentrations, 20 mg single oral, planned time 6 h, Mean): 566 nM
- concentration at 6 h (20 mg, BI 187004 plasma concentrations, 20 mg single oral, planned time 6 h, Median): 529 nM
- concentration at 6 h (20 mg, BI 187004 plasma concentrations, 20 mg single oral, planned time 6 h, Min): 420 nM
